According to patent US12472170B2, “Use of glutamate 2B receptor antagonists and sigma receptor agonists as antitussives” (Seyltx, Inc., priority 2019, dated 2025):
Values joined by “and” are separate entries in the source; they are usually repeats but may differ in a detail not shown here. Equal values may be shown once.

Tested on: citric acid (1M) evoked cough in guinea pigs
Experiment: Citric acid (1M) aerosol-evoked coughs and sneezes in conscious guinea pigs after oral pre-treatment
Assay type: in vivo, Male Dunkin Hartley guinea pigs
Protocol: The guinea pig species used in one study was twenty four Male Dunkin Hartley guinea pigs, each weighing between 300 and 350 g, which were supplied by Marshall Bioresources Ltd, UK.
A test compound, Ifenprodil, and Gefapixant (in powder form) were prepared and formulated by initially adding 100% propylene glycol at the required volume for the final treatment buffer. The additional buffer ingredients were added in a stepwise fashion, initially solutol and then captisol. Each ingredient was added in a volume equivalent to that which is required for the final volume of treatment buffer for the stock formulation.
In particular, for Gefapixant, this was 0.7 mg/mL, a concentration that delivers 3.5 mg/Kg in a dose volume of 5 mL/Kg. For Ifenprodil, this was 0.3 mg/mL, a concentration that delivers 1.5 mg/Kg in a dose volume of 5 mL/Kg.
Prior to the addition of each buffer ingredient, the test compound formulations were sonicated for 15 min using a Branson 1510 Sonicator. Afterwards, the initial formulation of the test compound and Gefapixant were diluted with a prepared buffer vehicle to provide additional dosing formulations. This was 0.01 to 0.2 mg/ml, preferably 0.06 mg/mL, a dose that delivers 0.3 mg/Kg in a dose volume of 5 mL/Kg.
The final test compound buffer vehicle comprised of 10:10:80 mix of propylene glycol:20% Solutol in PBS:5% Captisol in PBS.
All final test and control formulations were sonicated for 30 min prior to dosing to generate an even suspension or to ensure that the formulation had visibly dissolved.
The animals were first pre-treated (5 mL/Kg, p.o.) with the vehicle, the test compound, or Gefapixant prior to tussive agent (citric acid) exposure, using the amounts set out in Table 1 below. In each case, the route of administration of the treatment was oral.
Animals receiving Gefapixant (3.5 mg/Kg) were dosed 2 hours prior to tussive agent exposure. Animals receiving Ifenprodil (1.5 mg/Kg) were dosed 30 minutes prior to tussive agent exposure.
10 min prior to the tussive evaluation, each animal was individually placed into a purpose built exposure chamber with a supplied airflow through a nebuliser of 2 L/min, and allowed to settle into its new environment.
Following the acclimatisation period, each animal was then exposed for 10 min to an aerosol of 1M citric acid using an ultrasonic nebuliser (Aerogen) set at a nominal liquid consumption rate of 0.6 mL/min.
Coughs and sneezes elicited during the 10 minute aerosol of 1M citric acid, and a subsequent 5 minute observation period, were recorded manually to monitor the animal's welfare. […] The data was analysed for onset of cough, cough numbers and frequency, and sneezes.
The following measurements and assessments were taken for each guinea pig: • Mean total number of coughs evoked in each treatment group • Mean onset of first cough in each group • Mean number of coughs per minute during citric acid exposure in each treatment group
Inter-group deviations were statistically analyzed by a one-way analysis of variance (ANOVA). In the case of significant difference in the mean values among the different levels of treatment, comparisons versus the citric acid vehicle group were carried out using the Dunnett's test. p<0.05 was considered statistically significant.

[1] = Mean of n=6 animals, 10 min Citric acid (1M) exposure, Gefapixant 3.5 mg/Kg p.o., Ifenprodil 1.5 mg/Kg
[2] = Mean of n=6 animals, Post Exposure (5 mins) after 10 min Citric acid (1M), Gefapixant 3.5 mg/Kg p.o., Ifenprodil 1.5 mg/Kg
[3] = Total of n=6 animals, 10 min Citric acid (1M) exposure, Gefapixant 3.5 mg/Kg p.o., Ifenprodil 1.5 mg/Kg
[4] = Total of n=6 animals, Post Exposure (5 mins) after 10 min Citric acid (1M), Gefapixant 3.5 mg/Kg p.o., Ifenprodil 1.5 mg/Kg
[5] = individual animals (ID 1-6), 10 min Citric acid (1M) exposure, Gefapixant 3.5 mg/Kg p.o., Ifenprodil 1.5 mg/Kg
[6] = individual animals (ID 1-6), Post Exposure (5 mins) after 10 min Citric acid (1M), Gefapixant 3.5 mg/Kg p.o., Ifenprodil 1.5 mg/Kg

COc1cc(C(C)C)c(Oc2cnc(N)nc2N)cc1S(N)(=O)=O [Gefapixant]
Total Coughs, Mean (10 min citric acid (1M) exposure + 5 min post exposure, group mean, n=6): 23.67
Total Coughs, individual animal (10 min citric acid (1M) exposure + 5 min post exposure, individual animals 1-6): 16 and 26 and 24 and 23 and 33 and 20
average number of coughs per animal (total number of coughs) (10 min citric acid (1M) exposure + 5 min recovery, Gefapixant 3.5 mg/Kg p.o. 2 hrs prior, Ifenprodil 1.5 mg/Kg p.o. 30 min prior, n=6): 23.67 coughs per animal
reduction in mean cough frequency vs untreated control (Ifenprodil 1.5 mg/kg (p<0.01), Gefapixant 3.5 mg/kg (p<0.05)): 20%
Sneezes, Observation Period 0-1, group Mean [1]: 0.2
Sneezes, Observation Period 1-2, group Mean [1]: 0.3
Sneezes, Observation Period 2-3, group Mean [1]: 0.3
Sneezes, Observation Period 3-4, group Mean [1]: 0.2
Sneezes, Observation Period 4-5, group Mean [1]: 0.5
Sneezes, Observation Period 5-6, group Mean [1]: 0.5
Sneezes, Observation Period 6-7, group Mean [1]: 0.5
Sneezes, Observation Period 7-8, group Mean [1]: 0.0
Sneezes, Observation Period 8-9, group Mean [1]: 0.5
Sneezes, Observation Period 9-10, group Mean [1]: 0.2
Sneezes, Observation Period 10-11, group Mean [2]: 0.0
Sneezes, Observation Period 11-12, group Mean [2]: 0.0
Sneezes, Observation Period 12-13, group Mean [2]: 0.0
Sneezes, Observation Period 13-14, group Mean [2]: 0.0
Sneezes, Observation Period 14-15, group Mean [2]: 0.0
Total Sneezes, group Mean (Mean of n=6 animals, whole observation period 0-15 (10 min Citric acid (1M) exposure + Post Exposure 5 mins), Gefapixant 3.5 mg/Kg p.o., Ifenprodil 1.5 mg/Kg): 3.17
Sneezes, Observation Period 0-1, group Total [3]: 1.0
Sneezes, Observation Period 1-2, group Total [3]: 2.0
Sneezes, Observation Period 2-3, group Total [3]: 2.0
Sneezes, Observation Period 3-4, group Total [3]: 1.0
Sneezes, Observation Period 4-5, group Total [3]: 3.0
Sneezes, Observation Period 5-6, group Total [3]: 3.0
Sneezes, Observation Period 6-7, group Total [3]: 3.0
Sneezes, Observation Period 7-8, group Total [3]: 0.0
Sneezes, Observation Period 8-9, group Total [3]: 3.0
Sneezes, Observation Period 9-10, group Total [3]: 1.0
Sneezes, Observation Period 10-11, group Total [4]: 0.0
Sneezes, Observation Period 11-12, group Total [4]: 0.0
Sneezes, Observation Period 12-13, group Total [4]: 0.0
Sneezes, Observation Period 13-14, group Total [4]: 0.0
Sneezes, Observation Period 14-15, group Total [4]: 0.0
first onset of cough (citric acid (1M) exposure, Gefapixant 3.5 mg/Kg p.o., Ifenprodil 1.5 mg/Kg p.o., group mean, n=6): 49.7 s
average number of sneezes per animal (citric acid (1M) exposure, Gefapixant 3.5 mg/Kg p.o., Ifenprodil 1.5 mg/Kg p.o., n=6): 3.17 sneezes per animal
Onset (sec), Mean (citric acid (1M) exposure, group mean, n=6): 49.7 s
Onset (sec), individual animal (citric acid (1M) exposure, individual animals 1-6): 72 s and 24 s and 64 s and 36 s and 32 s and 70 s
Sneezes, Observation Period 0-1 [5]: 0 (5×) and 1
Sneezes, Observation Period 1-2 [5]: 0 (4×) and 1 (2×)
Sneezes, Observation Period 2-3 [5]: 1 (2×) and 0 (4×)
Sneezes, Observation Period 3-4 [5]: 0 (5×) and 1
Sneezes, Observation Period 4-5 [5]: 1 (3×) and 0 (3×)
Sneezes, Observation Period 5-6 [5]: 0 (3×) and 1 (3×)
Sneezes, Observation Period 6-7 [5]: 1 (3×) and 0 (3×)
Sneezes, Observation Period 7-8 [5]: 0
Sneezes, Observation Period 8-9 [5]: 1 (3×) and 0 (3×)
Sneezes, Observation Period 9-10 [5]: 0 (5×) and 1
Sneezes, Observation Period 10-11 [6]: 0
Sneezes, Observation Period 11-12 [6]: 0
Sneezes, Observation Period 12-13 [6]: 0
Sneezes, Observation Period 13-14 [6]: 0
Sneezes, Observation Period 14-15 [6]: 0
Total Sneezes (individual animals (ID 1-6), whole observation period 0-15 (10 min Citric acid (1M) exposure + Post Exposure 5 mins), Gefapixant 3.5 mg/Kg p.o., Ifenprodil 1.5 mg/Kg): 4 (2×) and 3 and 5 and 2 and 1
Cough, observation period 0-1, Mean (min 0-1 of citric acid (1M) exposure, group mean, n=6): 0.5
Cough, observation period 0-1, individual animal (min 0-1 of citric acid (1M) exposure, individual animals 1-6): 0 (3×) and 1 (3×)
Cough, observation period 0-1, Total (min 0-1 of citric acid (1M) exposure, sum over 6 animals): 3.0
Cough, observation period 1-2, Mean (min 1-2 of citric acid (1M) exposure, group mean, n=6): 2.0
Cough, observation period 1-2, individual animal (min 1-2 of citric acid (1M) exposure, individual animals 1-6): 1 (2×) and 3 (2×) and 2 (2×)
Cough, observation period 1-2, Total (min 1-2 of citric acid (1M) exposure, sum over 6 animals): 12.0
Cough, observation period 2-3, Mean (min 2-3 of citric acid (1M) exposure, group mean, n=6): 3.0
Cough, observation period 2-3, individual animal (min 2-3 of citric acid (1M) exposure, individual animals 1-6): 1 and 3 (2×) and 4 and 5 and 2
Cough, observation period 2-3, Total (min 2-3 of citric acid (1M) exposure, sum over 6 animals): 18.0
Cough, observation period 3-4, Mean (min 3-4 of citric acid (1M) exposure, group mean, n=6): 2.3
Cough, observation period 3-4, individual animal (min 3-4 of citric acid (1M) exposure, individual animals 1-6): 2 (3×) and 3 and 4 and 1
Cough, observation period 3-4, Total (min 3-4 of citric acid (1M) exposure, sum over 6 animals): 14.0
Cough, observation period 4-5, Mean (min 4-5 of citric acid (1M) exposure, group mean, n=6): 2.8
Cough, observation period 4-5, individual animal (min 4-5 of citric acid (1M) exposure, individual animals 1-6): 2 (2×) and 3 (3×) and 4
Cough, observation period 4-5, Total (min 4-5 of citric acid (1M) exposure, sum over 6 animals): 17.0
Cough, observation period 5-6, Mean (min 5-6 of citric acid (1M) exposure, group mean, n=6): 2.7
Cough, observation period 5-6, individual animal (min 5-6 of citric acid (1M) exposure, individual animals 1-6): 1 and 3 (3×) and 2 and 4
Cough, observation period 5-6, Total (min 5-6 of citric acid (1M) exposure, sum over 6 animals): 16.0
Cough, observation period 6-7, Mean (min 6-7 of citric acid (1M) exposure, group mean, n=6): 2.3
Cough, observation period 6-7, individual animal (min 6-7 of citric acid (1M) exposure, individual animals 1-6): 1 and 2 (3×) and 4 and 3
Cough, observation period 6-7, Total (min 6-7 of citric acid (1M) exposure, sum over 6 animals): 14.0
Cough, observation period 7-8, Mean (min 7-8 of citric acid (1M) exposure, group mean, n=6): 1.7
Cough, observation period 7-8, individual animal (min 7-8 of citric acid (1M) exposure, individual animals 1-6): 2 (4×) and 1 (2×)
Cough, observation period 7-8, Total (min 7-8 of citric acid (1M) exposure, sum over 6 animals): 10.0
Cough, observation period 8-9, Mean (min 8-9 of citric acid (1M) exposure, group mean, n=6): 2.0
Cough, observation period 8-9, individual animal (min 8-9 of citric acid (1M) exposure, individual animals 1-6): 2 (4×) and 3 and 1
Cough, observation period 8-9, Total (min 8-9 of citric acid (1M) exposure, sum over 6 animals): 12.0
Cough, observation period 9-10, Mean (min 9-10 of citric acid (1M) exposure, group mean, n=6): 1.7
Cough, observation period 9-10, individual animal (min 9-10 of citric acid (1M) exposure, individual animals 1-6): 2 (3×) and 3 and 0 and 1
Cough, observation period 9-10, Total (min 9-10 of citric acid (1M) exposure, sum over 6 animals): 10.0
Cough, observation period 10-11, Mean (min 10-11, post exposure, group mean, n=6): 1.5
Cough, observation period 10-11, individual animal (min 10-11, post exposure, individual animals 1-6): 1 (3×) and 2 (3×)
Cough, observation period 10-11, Total (min 10-11, post exposure, sum over 6 animals): 9.0
Cough, observation period 11-12, Mean (min 11-12, post exposure, group mean, n=6): 0.5
Cough, observation period 11-12, individual animal (min 11-12, post exposure, individual animals 1-6): 0 (3×) and 1 (3×)
Cough, observation period 11-12, Total (min 11-12, post exposure, sum over 6 animals): 3.0
Cough, observation period 12-13, Mean (min 12-13, post exposure, group mean, n=6): 0.5
Cough, observation period 12-13, individual animal (min 12-13, post exposure, individual animals 1-6): 1 (3×) and 0 (3×)
Cough, observation period 12-13, Total (min 12-13, post exposure, sum over 6 animals): 3.0
Cough, observation period 13-14, Mean (min 13-14, post exposure, group mean, n=6): 0.2
Cough, observation period 13-14, individual animal (min 13-14, post exposure, individual animals 1-6): 0 (5×) and 1
Cough, observation period 13-14, Total (min 13-14, post exposure, sum over 6 animals): 1.0
Cough, observation period 14-15, Mean (min 14-15, post exposure, group mean, n=6): 0.0
Cough, observation period 14-15, individual animal (min 14-15, post exposure, individual animals 1-6): 0
Cough, observation period 14-15, Total (min 14-15, post exposure, sum over 6 animals): 0.0
